Measured values published in publication PMC7010297, “How the initiating ribosome copes with ppGpp to translate mRNAs” (PLoS Biology, 2020).
“And” between values parts separate entries of the source, which are not always exact repeats. Identical values can stand only once.

Target: T1, IF2-bound 30S IC (Escherichia coli, UniProt P0A705)
T1 construct: 6xHis (N); made in house
Assay: 30S IC formation by MST, guanosine nucleotide titration;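 on MST Average: lower thermophoresis signal means Bpy-tRNAi dissociation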;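 on MST Replicates (a.u.): lower thermophoresis signal means Bpy-tRNAi dissociation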
Assay type: binding
Conditions: for Kd: KD of GTP for the 30S IC
From the text: To monitor the interaction of initiator tRNA and 30S ribosomal subunits, we used Microscale Thermophoresis (MST) with a fluorescently labelled initiator tRNA (Bpy-tRNAi) (Fig 1B). MST allows to measure fluorescence in a constrained space. Changes on the readout derive from molecular drifts resulting from small thermal equilibrium perturbations. Upon equilibrium perturbations, the patterns of Bpy-tRNAi migration away from the observation space are related to bound and unbound states (Fig 1B). […] On the contrary, a decrease in thermophoresis indicated the dissociation of Bpy-tRNAi. The relation between fluorescence measured at both equilibriums (Ff to Fi, after and prior to the perturbation, respectively) as a function of ligand concentration allowed to determine dissociation constants of the interaction (Fig 1C).
Continuous lines indicate nonlinear regression fittings with a quadratic equation. Three measurements were performed; mean and standard deviation are plotted (S1 Data). (B) as (A) to measure the concentration dependence for each tested guanosine nucleotide at constant IF2 (1 μM). […] Continuous lines show best fits using exponential functions. (D) Formation of 70S IC as measured by Bpy-tRNAi accommodation in the P site of the ribosome; 0.1 μM 30S ICs were formed with Bpy-tRNAi and rapidly mixed with 0.3 μM 50S subunits on a stopped-flow apparatus as described in [14]. Colors are as in (C). Continuous lines show best fits using an exponential function for a single reaction step. Each stopped-flow trace results from the mean of 5 to 7 replicates.
MST was calculated from the respective fluorescence time dependencies (S3 Fig). […] Symbols as in (B). […] Continuous lines indicate nonlinear regression fittings with quadratic (B and E) or same-site competition (G) functions. Three measurements were performed; mean and standard deviations are plotted (S1 Data).

T1 sequence (P0A705 whole entry, looked up): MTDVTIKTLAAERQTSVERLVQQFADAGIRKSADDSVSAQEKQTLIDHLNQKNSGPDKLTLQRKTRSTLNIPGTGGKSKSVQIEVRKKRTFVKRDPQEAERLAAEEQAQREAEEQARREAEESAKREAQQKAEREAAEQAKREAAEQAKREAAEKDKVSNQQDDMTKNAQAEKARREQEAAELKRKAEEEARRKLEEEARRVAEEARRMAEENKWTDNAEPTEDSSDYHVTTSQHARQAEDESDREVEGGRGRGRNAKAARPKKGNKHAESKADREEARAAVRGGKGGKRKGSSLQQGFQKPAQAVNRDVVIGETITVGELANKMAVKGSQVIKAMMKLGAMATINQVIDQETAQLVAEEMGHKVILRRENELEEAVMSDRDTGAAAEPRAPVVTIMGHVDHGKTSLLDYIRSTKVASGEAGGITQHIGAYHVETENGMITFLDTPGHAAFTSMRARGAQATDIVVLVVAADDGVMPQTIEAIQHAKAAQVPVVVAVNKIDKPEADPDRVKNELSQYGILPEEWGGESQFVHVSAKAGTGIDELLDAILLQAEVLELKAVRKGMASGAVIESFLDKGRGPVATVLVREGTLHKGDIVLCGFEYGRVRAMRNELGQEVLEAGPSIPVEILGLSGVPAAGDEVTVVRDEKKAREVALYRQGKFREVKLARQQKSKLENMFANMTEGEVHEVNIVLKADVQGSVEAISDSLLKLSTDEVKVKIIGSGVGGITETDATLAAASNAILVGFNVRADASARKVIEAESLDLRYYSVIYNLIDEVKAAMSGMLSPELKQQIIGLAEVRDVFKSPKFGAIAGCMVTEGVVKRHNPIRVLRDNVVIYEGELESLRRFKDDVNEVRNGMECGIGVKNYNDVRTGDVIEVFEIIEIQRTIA

## Nc1nc2c(ncn2[C@@H]2O[C@H](COP(=O)(O)OP(=O)(O)OP(=O)(O)O)[C@@H](O)[C@H]2O)c(=O)[nH]1 [GTP, guanosine triphosphate]
Fig 2B, nucleotide 0.005 µM
  MST Average: 931.90 a.u.
Fig 2B, nucleotide 0.005 µM, constant IF2 (1 μM)
  MST Replicates (a.u.): 929.16 a.u. and 932.86 a.u. and 933.70 a.u.
Fig 2B, nucleotide 0.01 µM
  MST Average: 935.48 a.u.
  MST Replicates (a.u.): 935.39 a.u. and 935.49 a.u. and 935.55 a.u.
Fig 2B, nucleotide 0.02 µM
  MST Average: 931.90 a.u.
  MST Replicates (a.u.): 930.17 a.u. and 932.09 a.u. and 933.42 a.u.
Fig 2B, nucleotide 0.04 µM
  MST Average: 934.94 a.u.
  MST Replicates (a.u.): 935.42 a.u. and 934.45 a.u. and 934.96 a.u.
Fig 2B, nucleotide 0.08 µM
  MST Average: 940.63 a.u.
  MST Replicates (a.u.): 937.42 a.u. and 941.79 a.u. and 942.68 a.u.
Fig 2B, nucleotide 0.16 µM
  MST Average: 949.92 a.u.
  MST Replicates (a.u.): 950.95 a.u. and 949.65 a.u. and 949.17 a.u.
Fig 2B, nucleotide 0.31 µM
  MST Average: 960.63 a.u.
  MST Replicates (a.u.): 959.49 a.u. and 961.54 a.u. and 960.87 a.u.
Fig 2B, nucleotide 0.63 µM
  MST Average: 975.44 a.u.
  MST Replicates (a.u.): 975.52 a.u. and 975.43 a.u. and 975.39 a.u.
Fig 2B, nucleotide 1.25 µM
  MST Average: 984.37 a.u.
  MST Replicates (a.u.): 979.99 a.u. and 986.37 a.u. and 986.76 a.u.
Fig 2B, nucleotide 2.50 µM
  MST Average: 1006.59 a.u.
  MST Replicates (a.u.): 1003.01 a.u. and 1008.37 a.u. and 1008.39 a.u.
Fig 2B, nucleotide 5.00 µM
  MST Average: 1020.42 a.u.
  MST Replicates (a.u.): 1016.52 a.u. and 1022.52 a.u. and 1022.21 a.u.
Fig 2B, nucleotide 10.00 µM
  MST Average: 1023.06 a.u.
  MST Replicates (a.u.): 1019.11 a.u. and 1024.56 a.u. and 1025.50 a.u.
Fig 2B, nucleotide 20.00 µM
  MST Average: 1004.40 a.u.
  MST Replicates (a.u.): 999.60 a.u. and 1006.70 a.u. and 1006.89 a.u.
30S IC programmed with mInfA
  Kd: 1900 ± 200 nM
30S IC programmed with mTufA
  Kd: 280 ± 40 nM
mInfA, GTP 0.061 μM
  MST Average: 967.92 a.u.
  MST Replicates (a.u.): 966.87 a.u. and 968.59 a.u. and 968.30 a.u.
mInfA, GTP 0.122 μM
  MST Average: 967.19 a.u.
  MST Replicates (a.u.): 972.17 a.u. and 974.24 a.u. and 955.18 a.u.
mInfA, GTP 0.244 μM
  MST Average: 974.83 a.u.
  MST Replicates (a.u.): 973.77 a.u. and 975.34 a.u. and 975.39 a.u.
mInfA, GTP 1.953 μM
  MST Average: 1006.13 a.u.
mInfA, GTP 3.906 μM
  MST Average: 1021.73 a.u.
  MST Replicates (a.u.): 1021.53 a.u. and 1022.43 a.u. and 1021.24 a.u.
mInfA, GTP 7.812 μM
  MST Average: 1043.12 a.u.
  MST Replicates (a.u.): 1042.43 a.u. and 1043.93 a.u. and 1042.99 a.u.
mInfA, GTP 15.625 μM
  MST Average: 1059.58 a.u.
  MST Replicates (a.u.): 1058.78 a.u. and 1060.65 a.u. and 1059.32 a.u.
mInfA, GTP 31.25 μM
  MST Average: 1066.52 a.u.
  MST Replicates (a.u.): 1066.71 a.u. and 1066.40 a.u. and 1066.45 a.u.
mMF1, GTP 0.061 μM
  MST Average: 955.96 a.u.
  MST Replicates (a.u.): 954.37 a.u. and 956.60 a.u. and 956.92 a.u.
mMF1, GTP 0.122 μM
  MST Average: 960.57 a.u.
  MST Replicates (a.u.): 957.75 a.u. and 961.91 a.u. and 962.05 a.u.
mMF1, GTP 0.244 μM
  MST Average: 971.65 a.u.
  MST Replicates (a.u.): 968.94 a.u.
mMF1, GTP 1.953 μM
  MST Average: 1013.90 a.u.
mMF1, GTP 3.906 μM
  MST Average: 1027.63 a.u.
  MST Replicates (a.u.): 1022.88 a.u. and 1029.90 a.u. and 1030.12 a.u.
mMF1, GTP 7.812 μM
  MST Average: 1034.32 a.u.
